Positions of bridges follow the written chain, without caps; N, C: chain ends. Non-standard residues stand in square brackets, D forms with d. Residues, ends and D or L forms follow the SMILES beside them. Ahp(2) = CCCCC[C@H](N)C(=O)O; NHexGly = CCCCCCNCC(=O)O; Nle = CCCC[C@H](N)C(=O)O; Orn = NCCC[C@H](N)C(=O)O; Dab = NCC[C@H](N)C(=O)O
Biological target: T1, mouse VISTA (mVISTA) (Mus musculus, UniProt Q9D659)
T1 construct: expressed in transfected cells; host or cells: Human embryonic kidney 293T cells
T1 sequence (Q9D659 33-308): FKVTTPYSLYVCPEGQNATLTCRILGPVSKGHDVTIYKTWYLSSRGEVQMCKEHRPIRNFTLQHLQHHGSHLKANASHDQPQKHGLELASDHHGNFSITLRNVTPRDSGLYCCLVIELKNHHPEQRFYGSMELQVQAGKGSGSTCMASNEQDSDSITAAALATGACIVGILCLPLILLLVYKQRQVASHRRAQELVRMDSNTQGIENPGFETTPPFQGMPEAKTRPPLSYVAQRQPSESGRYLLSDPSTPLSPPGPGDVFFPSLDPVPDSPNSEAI
Test: Cell-Based Binding High-Content Assay For mVISTA (HC CBA mVISTA)
Conditions: 293T cells expressing mouse VISTA; competition with biotinylated peptide (2 nM); read-out: HC CBA mVISTA IC50
Method in brief: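 Read-out: Alexa 647–streptavidin signal imaged on fixed, Hoechst-stained mVISTA-293T cells, with IC50 taken from a four-parameter logistic curve. Compounds competed with 2 nM biotinylated peptide for 30 min at room temperature, tested under both no-wash and wash (1 h compound, media exchange, 1 h) formats.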

Q: With `CCCCCCN1CC(=O)N[C@@H](Cc2ccc(O)cc2)C(=O)N[C@@H](CCCC)C(=O)NCC(=O)N[C@@H](CCCNC(=N)N)C(=O)N[C@@H](CC(C)C)C(=O)N[C@@H](CCCCC)C(=O)N2CCC[C@H]2C(=O)N[C@@H](C(C)C)C(=O)N[C@@H](CCC(=O)O)C(=O)N[C@H](C(=O)NCC(=O)O)CSCC(=O)N[C@@H](Cc2ccccc2)C(=O)N[C@@H](Cc2ccc(O)cc2)C(=O)N[C@@H](CC(=O)O)C1=O` [Example 1022] ({CH2CO}-FYD[NHexGly]Y[Nle]GRL[Ahp(2)]PVECG-OH; thioether N-14) as the compound, how does the IC50 read?
A: 41.5 nM

Q: Which IC50 does the source give for `CCCCCCN1CC(=O)N[C@@H](Cc2ccc(O)cc2)C(=O)N[C@@H](CCCC)C(=O)NCC(=O)N[C@@H](CCCNC(=N)N)C(=O)N[C@@H](CC(C)C)C(=O)N[C@@H](CCCCC)C(=O)N2CCC[C@H]2C(=O)N[C@@H](C(C)C)C(=O)NCC(=O)N[C@H](C(=O)NCC(=O)O)CSCC(=O)N[C@@H](Cc2ccccc2)C(=O)N[C@@H](Cc2ccc(O)cc2)C(=O)N[C@@H](CC(=O)O)C1=O` [Example 1023] ({CH2CO}-FYD[NHexGly]Y[Nle]GRL[Ahp(2)]PVGCG-OH; thioether N-14) here?
A: 31 nM

Q: `CCCCCCN1CC(=O)N[C@@H](Cc2ccc(O)cc2)C(=O)N[C@@H](CCCC)C(=O)N[C@@H](CC(=O)O)C(=O)N[C@@H](CCCNC(=N)N)C(=O)N[C@@H](CC(C)C)C(=O)N[C@@H](CCCCC)C(=O)N2CCC[C@H]2C(=O)N[C@@H](C(C)C)C(=O)NCC(=O)N[C@H](C(=O)NCC(=O)O)CSCC(=O)N[C@@H](Cc2ccccc2)C(=O)N[C@@H](Cc2ccc(O)cc2)C(=O)N[C@@H](CC(=O)O)C1=O` [Example 1024] ({CH2CO}-FYD[NHexGly]Y[Nle]DRL[Ahp(2)]PVGCG-OH; thioether N-14) was tested. Which IC50 did it give?
A: 13.6 nM

Q: `CCCCCCN1CC(=O)N[C@@H](Cc2ccc(O)cc2)C(=O)N[C@@H](CCCC)C(=O)N[C@@H](CC(=O)O)C(=O)N[C@@H](CCCNC(=N)N)C(=O)N[C@@H](CC(C)C)C(=O)N[C@@H](CCCCC)C(=O)N2CCC[C@H]2C(=O)N[C@@H](C(C)C)C(=O)N[C@@H](CC(C)C)C(=O)N[C@H](C(=O)NCC(=O)O)CSCC(=O)N[C@@H](Cc2ccccc2)C(=O)N[C@@H](Cc2ccc(O)cc2)C(=O)N[C@@H](CC(=O)O)C1=O` [Example 1025] ({CH2CO}-FYD[NHexGly]Y[Nle]DRL[Ahp(2)]PVLCG-OH; thioether N-14) was tested. Which IC50 did it give?
A: 30.6 nM

Q: How did the IC50 turn out when `CCCCCCN1CC(=O)N[C@@H](Cc2ccc(O)cc2)C(=O)N[C@@H](CCCCC)C(=O)N[C@@H](CC(N)=O)C(=O)N[C@@H](CCCNC(=N)N)C(=O)N[C@@H](CC(C)C)C(=O)N[C@@H](CCCCC)C(=O)N2CCC[C@H]2C(=O)N[C@@H](C(C)C)C(=O)N[C@@H](CC(N)=O)C(=O)N[C@H](C(=O)NCC(=O)O)CSCC(=O)N[C@@H](Cc2ccccc2)C(=O)N[C@@H](Cc2ccc(O)cc2)C(=O)N[C@@H](CC(=O)O)C1=O` [Example 1026] ({CH2CO}-FYD[NHexGly]Y[Ahp(2)]NRL[Ahp(2)]PVNCG-OH; thioether N-14) was run?
A: 5.5 nM

Q: With `CCCCCCN1CC(=O)N[C@@H](Cc2ccc(O)cc2)C(=O)N[C@@H](CC(C)C)C(=O)N[C@@H](CC(N)=O)C(=O)N[C@@H](CCCNC(=N)N)C(=O)N[C@@H](CC(C)C)C(=O)N[C@@H](CCCCC)C(=O)N2CCC[C@H]2C(=O)N[C@@H](C(C)C)C(=O)N[C@@H](CC(N)=O)C(=O)N[C@H](C(=O)NCC(N)=O)CSCC(=O)N[C@@H](Cc2ccccc2)C(=O)N[C@@H](Cc2ccc(O)cc2)C(=O)N[C@@H](CC(=O)O)C1=O` [Example 1027] ({CH2CO}-FYD[NHexGly]YLNRL[Ahp(2)]PVNCG-NH2; thioether N-14) as the compound, how does the IC50 read?
A: 36.8 nM

Q: `CCCCCCN1CC(=O)N[C@@H](Cc2ccc(O)cc2)C(=O)N[C@@H](CCCC)C(=O)NCC(=O)N[C@@H](CCCNC(=N)N)C(=O)N[C@@H](CC(C)C)C(=O)N[C@@H](CCCCC)C(=O)N2CCC[C@H]2C(=O)N[C@@H](C(C)C)C(=O)N[C@@H](CC(N)=O)C(=O)N[C@H](C(=O)NCC(=O)O)CSCC(=O)N[C@@H](Cc2ccccc2)C(=O)N[C@@H](Cc2ccc(O)cc2)C(=O)N[C@@H](CC(=O)O)C1=O` [Example 1028] ({CH2CO}-FYD[NHexGly]Y[Nle]GRL[Ahp(2)]PVNCG-OH; thioether N-14) was tested. Which IC50 did it give?
A: 5.2 nM

Q: How did the IC50 turn out when `CCCCCCN1CC(=O)N[C@@H](Cc2ccc(O)cc2)C(=O)N[C@@H](CCCC)C(=O)N[C@@H](CC(=O)O)C(=O)N[C@@H](CCCNC(=N)N)C(=O)N[C@@H](CC(C)C)C(=O)N[C@@H](CCCCC)C(=O)N2CCC[C@H]2C(=O)N[C@@H](C(C)C)C(=O)N[C@@H](CC(N)=O)C(=O)N[C@H](C(=O)NCC(=O)O)CSCC(=O)N[C@@H](Cc2ccccc2)C(=O)N[C@@H](Cc2ccc(O)cc2)C(=O)N[C@@H](CC(=O)O)C1=O` [Example 1029] ({CH2CO}-FYD[NHexGly]Y[Nle]DRL[Ahp(2)]PVNCG-OH; thioether N-14) was run?
A: 1.1 nM

Q: `CCCCCCN1CC(=O)N[C@@H](Cc2ccc(O)cc2)C(=O)N[C@@H](CC(C)C)C(=O)N[C@@H](CC(N)=O)C(=O)N[C@@H](CCCNC(=N)N)C(=O)N[C@@H](CC(C)C)C(=O)N[C@@H](CCCCC)C(=O)N2CCC[C@H]2C(=O)N[C@@H](C(C)C)C(=O)N[C@@H](CCCNC(=N)N)C(=O)N[C@H](C(=O)NCC(=O)O)CSCC(=O)N[C@@H](Cc2ccccc2)C(=O)N[C@@H](Cc2ccc(O)cc2)C(=O)N[C@@H](CC(=O)O)C1=O` [Example 1030] ({CH2CO}-FYD[NHexGly]YLNRL[Ahp(2)]PVRCG-OH; thioether N-14) was tested. Which IC50 did it give?
A: 34.5 nM

Q: How did the IC50 turn out when `CCCCCCN1CC(=O)N[C@@H](Cc2ccc(O)cc2)C(=O)N[C@@H](CCCCC)C(=O)N[C@@H](CC(N)=O)C(=O)N[C@@H](CCCNC(=N)N)C(=O)N[C@@H](CC(C)C)C(=O)N[C@@H](CCCCC)C(=O)N2CCC[C@H]2C(=O)N[C@@H](C(C)C)C(=O)N[C@@H](CO)C(=O)N[C@H](C(=O)NCC(N)=O)CSCC(=O)N[C@@H](Cc2ccccc2)C(=O)N[C@@H](Cc2ccc(O)cc2)C(=O)N[C@@H](CC(=O)O)C1=O` [Example 1031] ({CH2CO}-FYD[NHexGly]Y[Ahp(2)]NRL[Ahp(2)]PVSCG-NH2; thioether N-14) was run?
A: 34.7 nM

Q: With `CCCCCCN1CC(=O)N[C@@H](Cc2ccc(O)cc2)C(=O)N[C@@H](CCCCC)C(=O)N[C@@H](CC(N)=O)C(=O)N[C@@H](C)C(=O)N[C@@H](CC(C)C)C(=O)N[C@@H](CCCCC)C(=O)N2CCC[C@H]2C(=O)N[C@@H](C(C)C)C(=O)N[C@@H](CO)C(=O)N[C@H](C(=O)NCC(N)=O)CSCC(=O)N[C@@H](Cc2ccccc2)C(=O)N[C@@H](Cc2ccc(O)cc2)C(=O)N[C@@H](CC(=O)O)C1=O` [Example 1032] ({CH2CO}-FYD[NHexGly]Y[Ahp(2)]NAL[Ahp(2)]PVSCG-NH2; thioether N-14) as the compound, how does the IC50 read?
A: 11.1 nM

Q: With `CCCCCCN1CC(=O)N[C@@H](Cc2ccc(O)cc2)C(=O)N[C@@H](CCCC)C(=O)N[C@@H](CC(N)=O)C(=O)N[C@@H](CCCNC(=N)N)C(=O)N[C@@H](CC(C)C)C(=O)N[C@@H](CCCCC)C(=O)N2CCC[C@H]2C(=O)N[C@@H](C(C)C)C(=O)N[C@@H](CO)C(=O)N[C@H](C(=O)NCC(N)=O)CSCC(=O)N[C@@H](Cc2ccccc2)C(=O)N[C@@H](Cc2ccc(O)cc2)C(=O)N[C@@H](CC(=O)O)C1=O` [Example 1033] ({CH2CO}-FYD[NHexGly]Y[Nle]NRL[Ahp(2)]PVSCG-NH2; thioether N-14) as the compound, how does the IC50 read?
A: 16.7 nM

Q: Which IC50 does the source give for `CCCCCCN1CC(=O)N[C@@H](Cc2ccc(O)cc2)C(=O)N[C@@H](CCCCC)C(=O)N[C@@H](CC(N)=O)C(=O)N[C@@H](CCCNC(=N)N)C(=O)N[C@@H](CC(C)C)C(=O)N[C@@H](CCCCC)C(=O)N2CCC[C@H]2C(=O)N[C@@H](C(C)C)C(=O)N[C@@H](CO)C(=O)N[C@H](C(=O)NCC(=O)O)CSCC(=O)N[C@@H](Cc2ccccc2)C(=O)N[C@@H](Cc2ccc(O)cc2)C(=O)N[C@@H](CC(=O)O)C1=O` [Example 1034] ({CH2CO}-FYD[NHexGly]Y[Ahp(2)]NRL[Ahp(2)]PVSCG-OH; thioether N-14) here?
A: 3.7 nM

Q: With `CCCCCCN1CC(=O)N[C@@H](Cc2ccc(O)cc2)C(=O)N[C@@H](CCCCC)C(=O)N[C@@H](CC(N)=O)C(=O)N[C@@H](CCCCN)C(=O)N[C@@H](CC(C)C)C(=O)N[C@@H](CCCCC)C(=O)N2CCC[C@H]2C(=O)N[C@@H](C(C)C)C(=O)N[C@@H](CO)C(=O)N[C@H](C(=O)NCC(N)=O)CSCC(=O)N[C@@H](Cc2ccccc2)C(=O)N[C@@H](Cc2ccc(O)cc2)C(=O)N[C@@H](CC(=O)O)C1=O` [Example 1035] ({CH2CO}-FYD[NHexGly]Y[Ahp(2)]NKL[Ahp(2)]PVSCG-NH2; thioether N-14) as the compound, how does the IC50 read?
A: 30.4 nM

Q: With `CCCCCCN1CC(=O)N[C@@H](Cc2ccc(O)cc2)C(=O)N[C@@H](CCCCC)C(=O)N[C@@H](CC(N)=O)C(=O)N[C@@H](CCCN)C(=O)N[C@@H](CC(C)C)C(=O)N[C@@H](CCCCC)C(=O)N2CCC[C@H]2C(=O)N[C@@H](C(C)C)C(=O)N[C@@H](CO)C(=O)N[C@H](C(=O)NCC(N)=O)CSCC(=O)N[C@@H](Cc2ccccc2)C(=O)N[C@@H](Cc2ccc(O)cc2)C(=O)N[C@@H](CC(=O)O)C1=O` [Example 1036] ({CH2CO}-FYD[NHexGly]Y[Ahp(2)]N[Orn]L[Ahp(2)]PVSCG-NH2; thioether N-14) as the compound, how does the IC50 read?
A: 20.1 nM

Q: For `CCCCCCN1CC(=O)N[C@@H](Cc2ccc(O)cc2)C(=O)N[C@@H](CCCCC)C(=O)N[C@@H](CC(N)=O)C(=O)N[C@@H](CCN)C(=O)N[C@@H](CC(C)C)C(=O)N[C@@H](CCCCC)C(=O)N2CCC[C@H]2C(=O)N[C@@H](C(C)C)C(=O)N[C@@H](CO)C(=O)N[C@H](C(=O)NCC(N)=O)CSCC(=O)N[C@@H](Cc2ccccc2)C(=O)N[C@@H](Cc2ccc(O)cc2)C(=O)N[C@@H](CC(=O)O)C1=O` [Example 1037] ({CH2CO}-FYD[NHexGly]Y[Ahp(2)]N[Dab]L[Ahp(2)]PVSCG-NH2; thioether N-14), which IC50 is on record?
A: 36.4 nM

From US20240218022A1, “ANTI-VISTA MACROCYCLIC PEPTIDES AND COMPOSITIONS” (BRISTOL-MYERS SQUIBB COMPANY, priority 2022, published 2024)
